The test system of one assay is Japanese white rabbits. Nature of the assay: Test for intraocular pressure reduction using Japanese white rabbits. In kind it is in vivo. The procedure: (1) Test for intraocular pressure reduction using Japanese white rabbits: In order to examine the usefulness of the present compound as a preventive or therapeutic agent for glaucoma or ocular hypertension, an intraocular pressure lowering effect when the present compound was administered to Japanese white rabbits (sex: male) was evaluated and studied. As the test compound, Compound A was used. […]
Administration method and measurement method: Just before any of the test liquids was administered, one drop of 0.4% oxybuprocaine hydrochloride eye drop was instilled into both eyes of each experimental animal to achieve local anesthesia, and the intraocular pressure was measured using an applanation tonometer. This intraocular pressure was determined as an initial intraocular pressure. […]
After the test liquid was administered, the intraocular pressure of both eyes of each experimental animal was measured at predetermined times (at 1, 2, 4 and 6 hours after administration). […]
Calculation of intraocular pressure reduction degree: The intraocular pressure reduction degree of each test compound administration group at each measurement time was calculated from the following calculation formula. Among the obtained intraocular pressure reduction degrees at respective measurement times, the maximum value was determined as a maximum intraocular pressure reduction degree. […]

The next assay deals with human neutrophils. The assay can be described thus: Neutrophil oxidative activity (luminol enhanced chemiluminescence). The format is cell-based. To be noted: oxidative activity assay, purified human neutrophils, fMLP-stimulated chemiluminescence, read-out: Functional Activity. An excerpt:
Chemiluminescence Methods: Luminol enhanced chemiluminescence, a measure of neutrophil oxidative activity, is dependent upon both superoxide production and mobilization of the granule enzyme myeloperoxidase. The light is emitted from unstable high-energy oxygen species such as hypochlorous acid and singlet oxygen generated by activated neutrophils.
Purified human neutrophils (2×10^6/ml) suspended in Hanks balanced salt solution containing 0.1% human serum albumin (HA), adenosine deaminase (1 U/mL) and rolipram (100 nM) were incubated (37 C) in a water bath for 15 min with or without rhTNF (10 U/ml). Following incubation 100 µL aliquots of the PMN were transferred to wells (White walled clear bottom 96 well tissue culture plates Costar #3670; 2 wells/condition) containing […] and luminol (final concentration […]) with or without adenosine agonist (final agonist concentrations 0.01-1000 nM). The plate was incubated 5 min (37 C) and then fMLP (50 l in HA; final concentration […]) was added to all wells.
Peak chemiluminescence was determined with a Victor 1420 Multilabel Counter in the chemiluminescence mode using the Wallac Workstation software. Data are presented as peak chemiluminescence as percent of activity in the absence of an adenosine agonist. The EC50 was determined using PRISM software. All compounds were tested with PMNs from three separate donors.
Effect of A2A Agonists on Neutrophil Oxidative Activity: f-met-leu-phe (fMLP), luminol, superoxide dismutase, cytochrome C, fibrinogen, adenosine deaminase, and trypan blue were obtained from Sigma Chemical. Ficoll-hypaque was purchased from ICN (Aurora, Ohio), and Cardinal Scientific (Santa Fe, N. Mex.) and Accurate Chemicals and Scientific (Westerbury, N.Y.). Endotoxin (lipopolysaccharide; E. coli K235) was from List Biologicals (Campbell, Calif.). Hanks balanced salt solution (HBSS), and limulus amebocyte lysate assay kit were from BioWittaker (Walkersville, Md.). Human serum albumin (HSA) was from Cutter Biological (Elkhart, Ind.). Recombinant human tumor necrosis factor-α was supplied by Dianippon Pharmaceutical Co. Ltd. (Osaka, Japan). ZM241385 (4-(2-[7-amino-2-(2-furyl)[1,2,4]triazolo[2,3-a][1,3,5]triazin-5-yl amino]ethyl)phenol) was a gift from Simon Poucher, Zeneca Pharmaceuticals, Cheshire, UK. Stock solutions (1 mM and 10 mM in DMSO) were made and stored at −20° C.
Human neutrophil preparation: Purified neutrophils (98% neutrophils and >95% viable by trypan blue exclusion) containing <1 platelet per 5 neutrophils and <50 pg/ml endotoxin (limulus amebocyte lysate assay) were obtained from normal heparinized (10 U/ml) venous blood by a one step Ficoll-hypaque separation procedure (A. Ferrante et al., J. Immunol. Meth., 36, 109 (1980)). […]

The target of assay [1] is T1, recombinant human A2A receptors (Homo sapiens, UniProt P29274).
T1 construct: made in house; host or cells: Sf9 insect cells, viral (baculovirus) infection; membranes
Nature of the assay: Radioligand binding assay, A2A receptor. To be noted: recombinant human A2A receptors in Sf9 cell membranes; competition binding. The procedure:
Cell culture and membrane preparation. Sf9 cells were cultured in Grace's medium supplemented with 10% fetal bovine serum, 2.5 μg/ml amphotericin B and 50 μg/ml gentamycin in an atmosphere of 50% N2/50% O2. Viral infection was performed at a density of 2.5×10^6 cells/mL with a multiplicity of infection of two for each virus used. Infected cells were harvested 3 days post-infection and washed twice in insect PBS (PBS pH 6.3). Cells were then resuspended in lysis buffer (20 mM HEPES pH 7.5, 150 mM NaCl, 3 mM MgCl2, 1 mM β-mercaptoethanol (BME), 5 μg/mL leupeptin, 5 μg/mL pepstatin A, 1 μg/mL aprotinin, and 0.1 mM PMSF) and snap frozen for storage at −80° C. Cells were thawed on ice, brought to 30 mL total volume in lysis buffer, and burst by N2 cavitation (600 psi for 20 minutes). A low-speed centrifugation was performed to remove any unlysed cells (1000×g for 10 minutes), followed by a high-speed centrifugation (17,000×g for 30 minutes). The pellet from the final centrifugation was homogenized in buffer containing 20 mM HEPES pH 8, 100 mM NaCl, 1% glycerol, 2 μg/mL leupeptin, 2 μg/mL pepstatin A, 2 μg/mL Aprotinin, 0.1 mM PMSF, and 10 μM GDP using a small glass homogenizer followed by passage through a 26 gauge needle. Membranes were aliquoted, snap frozen in liquid N2, and stored at −80° C. Membranes from cells stably expressing the human A1 AR(CHO K1 cells) or A3 AR (HEK 293 cells) were prepared as described (Robeva et al., 1996).
Radioligand Binding Assays. Radioligand binding to recombinant human A2A receptors in Sf9 cell membranes was performed using either the radiolabeled agonist, ^125I-APE (Luthin et al., 1995) or the radiolabeled antagonist, ^125I-ZM241385 (^125I-ZM). To detect the high affinity, GTPγS-sensitive state of A1 and A3 AR, we used the agonist, ^125I-ABA (Linden et al., 1985; Linden et al., 1993). Binding experiments were performed in triplicate with 5 μg (A2A) or 25 μg (A1 and A3) membrane protein in a total volume of 0.1 mL HE buffer (20 mM HEPES and 1 mM EDTA) withl U/mL adenosine deaminase and 5 mM MgCl2 with or without 50 μM GTPγS. Membranes were incubated with radioligands at room temperature for three hours (for agonists) or two hours (for antagonists) in Millipore Multiscreen® 96-well GF/C filter plates and assays were terminated by rapid filtration on a cell harvester (Brandel, Gaithersburg, Md.) followed by 4×150 μL washes over 30 seconds with ice cold 10 mM Tris-HCl, pH 7.4, 10 mM MgCl2. Nonspecific binding was measured in the presence of 50 μM NECA. Competition binding assays were performed as described (Robeva et al., 1996) using 0.5-1 nM ^125I-APE, ^125I-ZM241385, or ^125I-ABA. Sometimes it is important to change pipette tips following each serial dilution to prevent transfer on tips of potent hydrophobic compounds. The Ki values for competing compound binding to a single site were derived from IC50 values with correction for radioligand and competing compound depletion as described previously (Linden, 1982). • Linden J (1982) Calculating the Dissociation Constant of an Unlabeled Compound From the Concentration Required to Displace Radiolabel Binding by 50%. J Cycl Nucl Res 8: 163-172. • Linden J, Patel A and Sadek S (1985) [^125I]Aminobenzyladenosine, a New Radioligand With Improved Specific Binding to Adenosine Receptors in Heart. Circ Res 56: 279-284. • Linden J, Taylor H E, Robeva A S, Tucker A L, Stehle J H, Rivkees S A, Fink J S and Reppert S M (1993) Molecular Cloning and Functional Expression of a Sheep A3 Adenosine Receptor with Widespread Tissue Distribution. Mol Pharmacol 44: 524-532. • Luthin D R, Olsson R A, Thompson R D, Sawmiller D R and Linden J (1995) Characterization of Two Affinity States of Adenosine A2A Receptors With a New Radioligand, 2-[2-(4-Amino-3-[^125I]Iodophenyl)Ethylamino] Adenosine. Mol Pharmacol 47: 307-313. • Robeva A S, Woodard R, Luthin D R, Taylor H E and Linden J (1996) Double Tagging Recombinant A1- and A2A-Adenosine Receptors With Hexahistidine and the FLAG Epitope. […]

T1 sequence (P29274 whole entry): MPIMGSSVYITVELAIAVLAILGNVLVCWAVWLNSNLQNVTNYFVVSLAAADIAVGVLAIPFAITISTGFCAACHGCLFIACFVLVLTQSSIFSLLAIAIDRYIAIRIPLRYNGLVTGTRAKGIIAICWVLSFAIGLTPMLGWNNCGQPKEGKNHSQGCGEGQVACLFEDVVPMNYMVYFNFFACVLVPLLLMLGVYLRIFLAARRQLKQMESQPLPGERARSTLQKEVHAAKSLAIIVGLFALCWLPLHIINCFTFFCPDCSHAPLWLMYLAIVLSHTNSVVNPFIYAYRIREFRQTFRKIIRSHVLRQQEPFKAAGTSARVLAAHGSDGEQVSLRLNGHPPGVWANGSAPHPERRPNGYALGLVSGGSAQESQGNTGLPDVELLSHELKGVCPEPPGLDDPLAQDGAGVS

As to `COC(=O)N(C)CC#Cc1nc(N)c2ncn([C@@H]3O[C@H](C(=O)NC4CC4)C(O)C3O)c2n1` (stereo partly shown) [Compound A], the “intraocular pressure lowering action” value with Japanese white rabbits (Japanese white rabbits, eye drop) is “exhibited an intraocular pressure lowering action”. In addition, in the assay with Japanese white rabbits (male Japanese white rabbits, 0.01% (w/v) eye drop, single dose into one eye, maximum of 1, 2, 4 and 6 hours, average of 5 cases), the “Maximum intraocular pressure reduction degree” value is reported as 3.9 mmHg.
For orientation: Ki means a dissociation constant, usually derived from enzyme kinetics or from competition with a known ligand. Regarding `COC(=O)N(CC#Cc1nc(N)c2ncn([C@@H]3O[C@H](C(=O)NC4CC4)C(O)C3O)c2n1)C(C)C` (stereo partly shown) [Example 8, N-Cyclopropyl 2-{3-[4-(isopropyl(methoxycarbonyl)amino)]propyn-1-yl}adenosine-5′-uronamide], the EC50 in the assay on human neutrophils was less than 10 nM. Moreover, in assay [1], the Ki is less than 10 nM.

Values taken from patent US8263762B2, “Alkoxy-carbonyl-amino-alkynyl-adenosine compounds and derivatives thereof as A2AR agonists” (Dogwood Pharmaceuticals, Inc., priority 2009, dated 2012).
